The IC50 is the concentration that gives 50% inhibition.

Test [1] addresses Dihydroorotate dehydrogenase (quinone), mitochondrial (Homo sapiens, UniProt Q02127). Briefly: Inhibitory activity against recombinant human DHODH.
Test [2] has as its system PBMC. Nature of the test: Antiproliferative activity on human PBMC. It counts as functional, cell-based.

Chain of Dihydroorotate dehydrogenase (quinone), mitochondrial (Q02127 whole entry): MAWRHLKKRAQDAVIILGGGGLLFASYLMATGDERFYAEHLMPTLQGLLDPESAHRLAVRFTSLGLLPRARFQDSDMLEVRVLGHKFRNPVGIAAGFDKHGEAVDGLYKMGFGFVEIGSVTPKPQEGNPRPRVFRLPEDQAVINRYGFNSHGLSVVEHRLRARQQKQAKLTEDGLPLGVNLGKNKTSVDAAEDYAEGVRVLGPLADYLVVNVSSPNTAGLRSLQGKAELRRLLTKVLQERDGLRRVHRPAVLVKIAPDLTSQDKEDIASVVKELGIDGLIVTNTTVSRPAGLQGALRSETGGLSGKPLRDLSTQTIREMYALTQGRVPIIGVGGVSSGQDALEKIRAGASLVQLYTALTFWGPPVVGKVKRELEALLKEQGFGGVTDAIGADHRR

Turning to `O=C(O)c1cscc1C(=O)Nc1ccc(-c2ccccc2)cc1`, the IC50 in test [1] turned out to be 1000 nM.

In the case of `CCOc1cccc(-c2cc(F)c(NC(=O)c3cocc3C(=O)O)c(F)c2)c1`, the figures for the concentration for half-maximal inhibition (IC50) in test [1] and in test [2] were 16 nM and 15000 nM, respectively. For the compound `CCOc1ccccc1-c1cc(F)c(NC(=O)c2ccsc2C(=O)O)c(F)c1`, in test [1], the IC50 was determined as 9 nM.

On to `COc1cccc(-c2ccc(NC(=O)c3c(C(=O)O)csc3C(=O)O)c(F)c2)c1`, for which, in test [1], the IC50 is > 1000 nM. Turning to `COc1cccc(-c2ccc(NC(=O)c3ccsc3C(=O)O)c(F)c2)c1`, the IC50 in test [1] is 44 nM; in test [2] it was 20000 nM.

As to `CCOc1ccccc1-c1cc(F)c(NC(=O)c2cscc2C(=O)O)c(F)c1`, in test [1], the IC50 turned out to be 10 nM. Same read-out and setting: next, `COc1cccc(-c2ccc(NC(=O)c3cocc3C(=O)O)c(F)c2)c1`: 340 nM; `COc1cccc(-c2ccc(NC(=O)c3cc(C(=O)O)sc3C(=O)O)c(F)c2)c1`: > 1000 nM; `COc1ccccc1-c1ccc(NC(=O)c2ccsc2C(=O)O)cc1Cl`: 12 nM. On the same count and under the same terms, next, `COc1cccc(-c2ccc(NC(=O)c3csc(C(=O)O)c3C(=O)O)c(F)c2)c1`: > 1000 nM. Turning to `O=C(O)c1cscc1C(=O)Nc1c(F)cc(-c2ccccc2OC(F)(F)F)cc1F`, the IC50 in test [1] amounted to 10 nM; in test [2] it was 2000 nM. Compound `COc1ccccc1-c1c(F)c(F)c(NC(=O)c2ccsc2C(=O)O)c(F)c1F` returned an IC50 in test [2] of 2000 nM. For `CCOc1cccc(-c2cc(F)c(NC(=O)c3ccsc3C(=O)O)c(F)c2)c1`, the IC50 in test [1] worked out at 3 nM. The same measure, in the same setting: the result for `O=C(Nc1ccc(-c2ccccc2)cc1)c1ccsc1C(=O)O` reads 303 nM.

The values above are taken from ChEMBL document CHEMBL1147753, “Biphenyl-4-ylcarbamoyl thiophene carboxylic acids as potent DHODH inhibitors” (Bioorg Med Chem Lett, 2006).
